# Assay results reported in PubChem BioAssay (NCI).
#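 At the GI50, growth is halved. TGI: total growth inhibition.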
# Assays:
# Assay in all cases: NCI tumour cell line growth inhibition, 384-well format
# OVCAR-5 ovarian = test system: OVCAR-5 ovarian
# COLO 205 colon = test system: COLO 205 colon
# KM12 colon = test system: KM12 colon
# UO-31 renal = test system: UO-31 renal
# MCF7 breast = test system: MCF7 breast
# T-47D breast = test system: T-47D breast
# SW-620 colon = test system: SW-620 colon
# HOP-92 NSCLC = test system: HOP-92 NSCLC
# A498 renal = test system: A498 renal
# OVCAR-4 ovarian = test system: OVCAR-4 ovarian
# TK-10 renal = test system: TK-10 renal
# OVCAR-3 ovarian = test system: OVCAR-3 ovarian
# U251 glioblastoma = test system: U251 glioblastoma
# CAKI-1 renal = test system: CAKI-1 renal
# SK-MEL-2 melanoma = test system: SK-MEL-2 melanoma
# HCC-2998 colon = test system: HCC-2998 colon
# OVCAR-8 ovarian = test system: OVCAR-8 ovarian
# HS 578T breast = test system: HS 578T breast
# SF-268 CNS = test system: SF-268 CNS
# PC-3 prostate = test system: PC-3 prostate
# SF-295 CNS = test system: SF-295 CNS
# MDA-MB-231 breast = test system: MDA-MB-231 breast
# MALME-3M melanoma = test system: MALME-3M melanoma
# NCI-H322M lung = test system: NCI-H322M lung
# ACHN renal = test system: ACHN renal
# SNB-19 CNS = test system: SNB-19 CNS
# SN12C renal = test system: SN12C renal
# MDA-MB-435 melanoma = test system: MDA-MB-435 melanoma
# UACC-62 melanoma = test system: UACC-62 melanoma
# SK-OV-3 ovarian = test system: SK-OV-3 ovarian
# HT29 colon = test system: HT29 colon
# EKVX NSCLC = test system: EKVX NSCLC
# HCT-15 colon = test system: HCT-15 colon
# SK-MEL-28 melanoma = test system: SK-MEL-28 melanoma
# A549 NSCLC = test system: A549 NSCLC
# UACC-257 melanoma = test system: UACC-257 melanoma
# HCT-116 colon = test system: HCT-116 colon
# SK-MEL-5 melanoma = test system: SK-MEL-5 melanoma
# NCI-H226 lung = test system: NCI-H226 lung
# LOX IMVI melanoma = test system: LOX IMVI melanoma
# SNB-75 CNS = test system: SNB-75 CNS
# IGROV1 ovarian = test system: IGROV1 ovarian
# NCI-H522 lung = test system: NCI-H522 lung
# K-562 leukemia = test system: K-562 leukemia
smiles,measurement,setting,value
Nc1ccn(C2OC(CO)C(O)C2(F)F)c(=O)n1 (configuration not stated),GI50,OVCAR-5 ovarian,48.1 nM
same,TGI,OVCAR-5 ovarian,> 100000 nM
same,GI50,COLO 205 colon,27.7 nM
same,TGI,COLO 205 colon,140 nM
same,GI50,KM12 colon,15.3 nM
same,TGI,KM12 colon,> 100000 nM
same,TGI,UO-31 renal,< 21.3 nM
same,TGI,MCF7 breast,> 100000 nM
same,GI50,T-47D breast,552 nM
same,TGI,T-47D breast,> 100000 nM
same,GI50,SW-620 colon,< 15.8 nM
same,TGI,SW-620 colon,> 100000 nM
same,GI50,HOP-92 NSCLC,40.7 nM
same,TGI,HOP-92 NSCLC,> 33100 nM
same,TGI,A498 renal,> 100000 nM
same,GI50,OVCAR-4 ovarian,> 100000 nM
same,TGI,OVCAR-4 ovarian,> 100000 nM
same,TGI,TK-10 renal,> 100000 nM
same,TGI,OVCAR-3 ovarian,> 100000 nM
same,TGI,U251 glioblastoma,25.2 nM
same,TGI,CAKI-1 renal,173 nM
same,TGI,SK-MEL-2 melanoma,15300 nM
same,TGI,HCC-2998 colon,> 100000 nM
same,TGI,OVCAR-8 ovarian,< 33.5 nM
same,GI50,HS 578T breast,< 33.3 nM
same,TGI,HS 578T breast,> 40800 nM
same,TGI,SF-268 CNS,18.5 nM
same,GI50,PC-3 prostate,> 100000 nM
same,TGI,PC-3 prostate,> 100000 nM
same,GI50,SF-295 CNS,< 14.6 nM
same,TGI,SF-295 CNS,25.4 nM
same,GI50,MDA-MB-231 breast,95.7 nM
same,TGI,MALME-3M melanoma,> 22100 nM
same,GI50,NCI-H322M lung,1090 nM
same,TGI,NCI-H322M lung,> 100000 nM
same,TGI,ACHN renal,< 10.8 nM
same,TGI,SNB-19 CNS,517 nM
same,GI50,SN12C renal,18.5 nM
same,TGI,SN12C renal,64.9 nM
same,GI50,MDA-MB-435 melanoma,301 nM
same,TGI,MDA-MB-435 melanoma,> 100000 nM
same,TGI,UACC-62 melanoma,19.4 nM
same,GI50,SK-OV-3 ovarian,31.8 nM
same,TGI,SK-OV-3 ovarian,> 100000 nM
same,GI50,HT29 colon,< 11.2 nM
same,TGI,HT29 colon,3040 nM
same,GI50,EKVX NSCLC,8710 nM
same,TGI,EKVX NSCLC,> 100000 nM
same,TGI,HCT-15 colon,> 100000 nM
same,TGI,SK-MEL-28 melanoma,> 100000 nM
same,TGI,A549 NSCLC,> 100000 nM
same,GI50,UACC-257 melanoma,< 18.3 nM
same,TGI,HCT-116 colon,> 36900 nM
same,TGI,SK-MEL-5 melanoma,< 16.8 nM
same,GI50,NCI-H226 lung,< 16.2 nM
same,TGI,NCI-H226 lung,73.4 nM
same,TGI,LOX IMVI melanoma,33 nM
same,GI50,SNB-75 CNS,< 15.5 nM
same,TGI,SNB-75 CNS,< 30.5 nM
same,TGI,IGROV1 ovarian,> 100000 nM
same,TGI,NCI-H522 lung,5710 nM
same,TGI,K-562 leukemia,> 100000 nM
